The values below come from PubChem BioAssay AID1259407 (Chemical Carcinogenesis Research Information System (CCRIS), 2018).

The data set relates to CCRIS mutagenicity, Ames/micronucleus/aberration tests. The experiment in a line: CCRIS mutagenicity studies.
Where [1] appears, read: Test System: AMES SALMONELLA TYPHIMURIUM, Strain/Indicator: TA98, Metabolic Activation: HAMSTER, LIVER, S-9, AROCLOR 1254 (30%), Method: PREINCUBATION
Setting [2] is: Test System: AMES SALMONELLA TYPHIMURIUM, Strain/Indicator: TA98, Metabolic Activation: NONE, Method: PREINCUBATION
Where [3] appears, read: Test System: AMES SALMONELLA TYPHIMURIUM, Strain/Indicator: TA98, Metabolic Activation: RAT, LIVER, S-9, AROCLOR 1254 (30%), Method: PREINCUBATION
[4] abbreviates: Test System: AMES SALMONELLA TYPHIMURIUM, Strain/Indicator: TA100, Metabolic Activation: HAMSTER, LIVER, S-9, AROCLOR 1254 (30%), Method: PREINCUBATION
Setting [5] is: Test System: AMES SALMONELLA TYPHIMURIUM, Strain/Indicator: TA100, Metabolic Activation: NONE, Method: PREINCUBATION
The mark [6] stands for this setting: Test System: AMES SALMONELLA TYPHIMURIUM, Strain/Indicator: TA100, Metabolic Activation: RAT, LIVER, S-9, AROCLOR 1254 (30%), Method: PREINCUBATION
Where [7] appears, read: Test System: AMES SALMONELLA TYPHIMURIUM, Strain/Indicator: TA98, Metabolic Activation: NONE, Method: STANDARD PLATE.
Where [8] appears, read: Test System: AMES SALMONELLA TYPHIMURIUM, Strain/Indicator: TA100, Metabolic Activation: NONE, Method: STANDARD PLATE.

The structures appear in SMILES notation. Active and inactive are the calls of the source. No rule for the calls is given here.

On to `CCCCOCCOCCSC#N`, for which the mutagenic call by setting is: (Test System: AMES SALMONELLA TYPHIMURIUM, Strain/Indicator: TA97, Metabolic Activation: HAMSTER, LIVER, S-9, AROCLOR 1254 (10%), Method: PREINCUBATION) “inactive; negative”; (Test System: AMES SALMONELLA TYPHIMURIUM, Strain/Indicator: TA97, Metabolic Activation: HAMSTER, LIVER, S-9, AROCLOR 1254 (30%), Method: PREINCUBATION) “inactive; negative”; (Test System: AMES SALMONELLA TYPHIMURIUM, Strain/Indicator: TA97, Metabolic Activation: NONE, Method: PREINCUBATION) “inactive; negative”; (Test System: AMES SALMONELLA TYPHIMURIUM, Strain/Indicator: TA97, Metabolic Activation: RAT, LIVER, S-9, AROCLOR 1254 (10%), Method: PREINCUBATION) “inactive; negative”; (Test System: AMES SALMONELLA TYPHIMURIUM, Strain/Indicator: TA97, Metabolic Activation: RAT, LIVER, S-9, AROCLOR 1254 (30%), Method: PREINCUBATION) “inactive; negative”; (Test System: AMES SALMONELLA TYPHIMURIUM, Strain/Indicator: TA98, Metabolic Activation: HAMSTER, LIVER, S-9, AROCLOR 1254 (10%), Method: PREINCUBATION) “inactive; negative”. Besides, the mutagenic call runs as follows: under setting [1], “inactive; negative”; under setting [2], “inactive; negative”; (Test System: AMES SALMONELLA TYPHIMURIUM, Strain/Indicator: TA98, Metabolic Activation: RAT, LIVER, S-9, AROCLOR 1254 (10%), Method: PREINCUBATION) “inactive; negative”; under setting [3], “inactive; negative”; (Test System: AMES SALMONELLA TYPHIMURIUM, Strain/Indicator: TA100, Metabolic Activation: HAMSTER, LIVER, S-9, AROCLOR 1254 (10%), Method: PREINCUBATION) “inactive; negative”; under setting [4], “inactive; negative”. Further, the mutagenic call under setting [5] is “inactive; negative”; the mutagenic call (Test System: AMES SALMONELLA TYPHIMURIUM, Strain/Indicator: TA100, Metabolic Activation: RAT, LIVER, S-9, AROCLOR 1254 (10%), Method: PREINCUBATION) is “inactive; negative”; the mutagenic call under setting [6] was “inactive; negative”; the mutagenic call (Test System: AMES SALMONELLA TYPHIMURIUM, Strain/Indicator: TA1535, Metabolic Activation: HAMSTER, LIVER, S-9, AROCLOR 1254 (10%), Method: PREINCUBATION) is “inactive; negative”; the mutagenic call (Test System: AMES SALMONELLA TYPHIMURIUM, Strain/Indicator: TA1535, Metabolic Activation: HAMSTER, LIVER, S-9, AROCLOR 1254 (30%), Method: PREINCUBATION) was “inactive; negative”; the mutagenic call (Test System: AMES SALMONELLA TYPHIMURIUM, Strain/Indicator: TA1535, Metabolic Activation: NONE, Method: PREINCUBATION) is “inactive; negative”. Also, the mutagenic call reads like this: (Test System: AMES SALMONELLA TYPHIMURIUM, Strain/Indicator: TA1535, Metabolic Activation: RAT, LIVER, S-9, AROCLOR 1254 (10%), Method: PREINCUBATION) “inactive; negative”; (Test System: AMES SALMONELLA TYPHIMURIUM, Strain/Indicator: TA1535, Metabolic Activation: RAT, LIVER, S-9, AROCLOR 1254 (30%), Method: PREINCUBATION) “inactive; negative”; (Test System: AMES SALMONELLA TYPHIMURIUM, Strain/Indicator: TA1537, Metabolic Activation: HAMSTER, LIVER, S-9, AROCLOR 1254 (30%), Method: PREINCUBATION) “inactive; negative”; (Test System: AMES SALMONELLA TYPHIMURIUM, Strain/Indicator: TA1537, Metabolic Activation: NONE, Method: PREINCUBATION) “inactive; negative”; (Test System: AMES SALMONELLA TYPHIMURIUM, Strain/Indicator: TA1537, Metabolic Activation: RAT, LIVER, S-9, AROCLOR 1254 (30%), Method: PREINCUBATION) “inactive; negative”.

On to `CC(=O)ON(C(C)=O)c1ccc(/C=C/c2ccccc2)cc1`, for which the mutagenic call (Test System: CHINESE HAMSTER V-79, Strain/Indicator: V-79/6-THIOGUANINE, Metabolic Activation: NONE, Method: STANDARD PLATE) is “active; positive”.

In the case of `COC(=O)C(C)=Cc1ccc([N+](=O)[O-])o1`, under setting [2], the mutagenic call is “active; positive”.

As for `O=C(Nc1cccc(Br)c1)c1csc([N+](=O)[O-])c1`, the mutagenic call was “active; positive” under setting [7] and “active; positive” under setting [8].

`Fc1ccc(CCl)cc1`: under setting [8], the mutagenic call is “inactive; negative”.

On to `CC(O)C(C)[N+](=O)[O-]` (configuration not stated), for which the mutagenic call is, setting by setting: under setting [2], “inactive; negative”; (Test System: AMES SALMONELLA TYPHIMURIUM, Strain/Indicator: TA98, Metabolic Activation: RAT, LIVER, S-9, AROCLOR, Method: PREINCUBATION) “inactive; negative”; under setting [5], “inactive; negative”; (Test System: AMES SALMONELLA TYPHIMURIUM, Strain/Indicator: TA102, Metabolic Activation: NONE, Method: PREINCUBATION) “inactive; negative”; (Test System: AMES SALMONELLA TYPHIMURIUM, Strain/Indicator: TA102, Metabolic Activation: RAT, LIVER, S-9, AROCLOR, Method: PREINCUBATION) “inactive; negative”.

Take `Clc1ccc(C(Cl)(Cl)Cl)cc1Cl`: the mutagenic call runs as follows: under setting [1], “active; positive”; under setting [2], “inactive; negative”; under setting [3], “active; positive”; under setting [4], “active; positive”; under setting [5], “inactive; negative”; under setting [6], “active; positive”.

As to `CC(C)(CO)[C@@H](O)C(=O)NCCCO`, the mutagenic call runs as follows: under setting [7], “inactive; negative”; (Test System: AMES SALMONELLA TYPHIMURIUM, Strain/Indicator: TA98, Metabolic Activation: RAT, LIVER, S-9, AROCLOR 1254, Method: STANDARD PLATE) “inactive; negative”; under setting [8], “inactive; negative”; (Test System: AMES SALMONELLA TYPHIMURIUM, Strain/Indicator: TA100, Metabolic Activation: RAT, LIVER, S-9, AROCLOR 1254, Method: STANDARD PLATE) “inactive; negative”; (Test System: AMES SALMONELLA TYPHIMURIUM, Strain/Indicator: TA1535, Metabolic Activation: NONE, Method: STANDARD PLATE) “inactive; negative”; (Test System: AMES SALMONELLA TYPHIMURIUM, Strain/Indicator: TA1535, Metabolic Activation: RAT, LIVER, S-9, AROCLOR 1254, Method: STANDARD PLATE) “inactive; negative”. For the same compound, the mutagenic call reads like this: (Test System: AMES SALMONELLA TYPHIMURIUM, Strain/Indicator: TA1537, Metabolic Activation: NONE, Method: STANDARD PLATE) “inactive; negative”; (Test System: AMES SALMONELLA TYPHIMURIUM, Strain/Indicator: TA1537, Metabolic Activation: RAT, LIVER, S-9, AROCLOR 1254, Method: STANDARD PLATE) “inactive; negative”; (Test System: AMES SALMONELLA TYPHIMURIUM, Strain/Indicator: TA1538, Metabolic Activation: NONE, Method: STANDARD PLATE) “inactive; negative”; (Test System: AMES SALMONELLA TYPHIMURIUM, Strain/Indicator: TA1538, Metabolic Activation: RAT, LIVER, S-9, AROCLOR 1254, Method: STANDARD PLATE) “inactive; negative”; (Test System: E. COLI, Strain/Indicator: WP2, Metabolic Activation: NONE, Method: STANDARD PLATE) “inactive; negative”; (Test System: E. COLI, Strain/Indicator: WP2, Metabolic Activation: RAT, LIVER, S-9, AROCLOR 1254, Method: STANDARD PLATE) “inactive; negative”.

As to `Nc1ccc(-c2ccc(N)cc2[N+](=O)[O-])cc1`, the mutagenic call (Test System: AMES SALMONELLA TYPHIMURIUM, Strain/Indicator: TA98(1,8-DNP6), Metabolic Activation: NONE, Method: STANDARD PLATE) was “active; positive”; the mutagenic call (Test System: AMES SALMONELLA TYPHIMURIUM, Strain/Indicator: TA98(1,8-DNP6), Metabolic Activation: S-9, Method: STANDARD PLATE) was “active; positive”; the mutagenic call under setting [7] is “active; positive”; the mutagenic call (Test System: AMES SALMONELLA TYPHIMURIUM, Strain/Indicator: TA98, Metabolic Activation: S-9, Method: STANDARD PLATE) was “active; positive”; the mutagenic call under setting [8] is “inactive; negative”; the mutagenic call (Test System: AMES SALMONELLA TYPHIMURIUM, Strain/Indicator: TA100, Metabolic Activation: S-9, Method: STANDARD PLATE) was “active; positive”.
